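Growth conditions: 96-well plates. Treatment: test compound, 48 hours, 5 concentrations. Analysis: linear interpolation between bracketing concentrations; unreached endpoints set to highest concentration. The concentration for full growth arrest is given as TGI.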
Key:
Test in all cases: inhibition of tumour cell growth, NCI panel, 48 h
DU-145 prostate = test system: DU-145 prostate
MCF7 breast = test system: MCF7 breast
MOLT-4 leukemia = test system: MOLT-4 leukemia
NCI-H522 lung = test system: NCI-H522 lung
NCI/ADR-RES ovarian = test system: NCI/ADR-RES ovarian
PC-3 prostate = test system: PC-3 prostate
RPMI-8226 leukemia = test system: RPMI-8226 leukemia
SF-295 CNS = test system: SF-295 CNS
SNB-19 CNS = test system: SNB-19 CNS
CCRF-CEM leukemia = test system: CCRF-CEM leukemia

SMILES	TGI (DU-145 prostate)	TGI (MCF7 breast)	TGI (MOLT-4 leukemia)	TGI (NCI-H522 lung)	TGI (NCI/ADR-RES ovarian)	TGI (PC-3 prostate)	TGI (RPMI-8226 leukemia)	TGI (SF-295 CNS)	TGI (SNB-19 CNS)	TGI (CCRF-CEM leukemia)
C/C(=N\Nc1ccc([N+](=O)[O-])cc1[N+](=O)[O-])c1ccc2ccccc2n1	> 100 µM	> 100 µM	> 100 µM	55.7 µM	> 100 µM	> 100 µM	> 100 µM	> 100 µM	94.4 µM	
c1ccc(N=C2SC(=NNc3ccccc3)SC2=Nc2ccccc2)cc1	> 100 µM		> 100 µM	> 100 µM	> 100 µM	> 100 µM	> 100 µM	> 100 µM	> 100 µM	> 100 µM
O=P(O)(O)C(O)/C=C/c1ccccc1 (configuration not stated)	> 100 µM	> 100 µM	> 100 µM	> 100 µM	> 100 µM	> 100 µM	> 100 µM	> 100 µM	> 100 µM	
O=P(O)(O)C(CSc1ccccc1)P(=O)(O)O		> 100 µM	> 100 µM	> 100 µM	> 100 µM		> 100 µM	> 100 µM	> 100 µM	> 100 µM
O=C(O)CSCC(=O)Nc1ccc2cccc3c2c1CC3	> 100 µM	> 100 µM	> 100 µM	> 100 µM	> 100 µM	> 100 µM	> 100 µM	> 100 µM	> 100 µM	> 100 µM
CCCNC(=S)N/N=C/c1cccc(C)n1		> 100 µM	72.3 µM	37 µM	> 100 µM	> 100 µM	> 100 µM	> 100 µM		7.05 µM
COc1ccc2c3c1OC1C(=O)C=CC4(O)C(C2)NCC[C@@]314 (some centres not stated)	13.1 µM	9.17 µM	9.13 µM	1.99 µM	20.3 µM	12.2 µM	13.2 µM	14.9 µM	19.1 µM	2.76 µM
Cc1cccc(Nc2cn(COCc3ccccc3)c(=O)[nH]c2=O)c1	> 100 µM	> 100 µM	> 100 µM	97.2 µM	90 µM	> 100 µM	> 100 µM	> 100 µM	> 100 µM	> 100 µM
COc1ccc(/C=C2\CSC/C(=C\c3ccc(OC)c(OC)c3OC)C2=O)c(OC)c1OC	> 100 µM	> 100 µM			> 100 µM	> 100 µM	67.3 µM	99.6 µM	> 100 µM	> 100 µM
CC(C)(C)[Si](C)(C)OCCCC#CCO			> 100 µM	> 100 µM			> 100 µM	> 100 µM	> 100 µM	> 100 µM
CCc1n[nH]c(=O)n1N1C(=O)C2CC=CCC2C1=O (configuration not stated)		> 100 µM	> 100 µM	> 100 µM	> 100 µM	> 100 µM	> 100 µM	> 100 µM	> 100 µM	> 100 µM
NC(=O)CCC(NCc1c2ccccc2[n+]([O-])c2ccccc12)C(=O)O (configuration not stated)			> 100 µM	> 100 µM			> 100 µM	> 100 µM	> 100 µM	> 100 µM

From PubChem BioAssay (NCI)
